Results on 4 compounds are retold here after US8609342B2, “Reporter gene assay method” (Otsuka Pharmaceutical Co., Ltd., priority 2001, dated 2013).

The structures appear in SMILES notation.

In data set [1] the target is T1, androgen receptor (Homo sapiens, UniProt P10275).
T1 construct: expressed in transfected cells; host or cells: CHO-K1 cells, transiently transfected with pZeoSV2-AR, pIND ARE-B10 and pcDNA-EGFP
T1 sequence (P10275 1-920): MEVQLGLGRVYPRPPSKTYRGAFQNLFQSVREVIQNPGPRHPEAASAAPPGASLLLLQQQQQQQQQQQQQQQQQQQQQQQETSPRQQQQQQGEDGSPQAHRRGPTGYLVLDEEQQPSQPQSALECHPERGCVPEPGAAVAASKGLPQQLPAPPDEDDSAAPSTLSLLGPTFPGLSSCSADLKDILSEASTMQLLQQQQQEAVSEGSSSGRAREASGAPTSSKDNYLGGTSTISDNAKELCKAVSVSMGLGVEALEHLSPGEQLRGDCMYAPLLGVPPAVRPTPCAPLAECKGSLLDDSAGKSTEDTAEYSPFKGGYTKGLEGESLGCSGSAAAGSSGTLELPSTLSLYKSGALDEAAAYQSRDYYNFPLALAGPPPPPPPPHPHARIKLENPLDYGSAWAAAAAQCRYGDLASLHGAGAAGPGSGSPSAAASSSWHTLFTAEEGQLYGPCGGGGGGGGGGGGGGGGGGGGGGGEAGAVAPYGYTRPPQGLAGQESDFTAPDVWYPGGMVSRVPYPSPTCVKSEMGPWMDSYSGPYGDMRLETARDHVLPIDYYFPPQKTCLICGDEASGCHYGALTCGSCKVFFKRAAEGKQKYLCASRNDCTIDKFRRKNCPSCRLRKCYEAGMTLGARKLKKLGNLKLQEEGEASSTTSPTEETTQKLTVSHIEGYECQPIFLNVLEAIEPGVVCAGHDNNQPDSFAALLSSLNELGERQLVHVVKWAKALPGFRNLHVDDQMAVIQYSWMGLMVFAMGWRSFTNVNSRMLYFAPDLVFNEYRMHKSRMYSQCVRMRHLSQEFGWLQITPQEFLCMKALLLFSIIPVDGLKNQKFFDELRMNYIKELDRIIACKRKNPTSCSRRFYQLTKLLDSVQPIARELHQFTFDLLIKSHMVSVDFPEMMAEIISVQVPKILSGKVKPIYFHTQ
The experiment in a line: Reporter gene assay for androgen receptor antagonist detection (luciferase activity). Type of data set: cell-based. The note with it: for antagonistic activity against the androgen receptor (judgment): judged from luciferase activity with EGFP activity as indication of cytotoxicity. The procedure:
(§1) First, each test substance is dissolved in DMSO to a concentration of 10^−3 M, and the solution was 10-fold diluted stepwise (serial dilution) to give diluted test sample solutions having a test substance concentration of 10^−3 M to 10^−9 M. Then, each diluted sample solution was 100-fold diluted using a solution prepared by adding 5×10^−9 M) of 5α-dehydrotestosterone to DEMEM/F-12 medium (Gibco) (the test substance concentration becoming 10^−5 M to 10^−11 M).
(§2) CHO-K1 cells were developed on a 96-well plate to a size of about 8000 cells/84 μL of medium per well.
(§3) Separately, a solution for transfection was prepared by diluting 1 ng of pZeoSV-2-AR (prepared above in (1)), 50 ng of pIND ARE-B10 (prepared above in (2)) and 4 ng of pcDNA-EGFP (prepared above in (3)) with 6.25 μL of DMEM/F-12 medium and adding 0.15 μL of FuGENE6™ (Roche) to the dilution.
(§4) On the day after the above development, 6 μL/well of the solution for transfection was added to each well for transfection of the cells in each well (the cell culture fluid volume in each well being about 90 μL). Three hours later, each of serial 10-fold dilutions of each test sample (generally 10^−5 M to 10^−11 M) as prepared using the above-prepared medium (DMEM/F-12) supplemented with 5×10^−9 M of 5a-dehydrotestosterone was added in 10 μL portions, and cultivation was continued at room temperature (the final test substance concentrations: 10^−6 M to 10^−12 M).
(§5) In FIGS. 5 and 6, the ordinate denotes the cell survival rate (%) (the relative EGFP fluorescence intensity value at each test substance concentration as determined by taking the EGFP fluorescence intensity value measured without addition of the test substance as 100; shown by curve (1)) as well as the luciferase activity percentage (shown by curve (2)). The abscissa denotes the test substance concentration (M).
For orientation: A reporter such as luciferase makes a cellular process visible.

For data set [2], the system named is CHO-K1 cells. Type of data set: cell-based, hamster. The procedure: as §1, §2, §3, §4
At 24 hours after addition of the serial dilutions of the test sample, the GFP fluorescence intensity in each well was measured at the excitation wavelength of 485 nm and fluorescence wavelength of 535 nm using Berthord's ARVO.
as §5

Data set [3] relates to CHO-K1 cells. It is filed as cell-based. Particulars: Chinese hamster, 24 h. How it is done: CHO-K1 cells (cells deposited with ATCC) were developed on a 96-well plate (8000 cells/well). On the next day, transfection was carried in each well with 50 ng/well of pGL3-Control (retaining the SV40 promoter and containing the luciferase gene; Promega) and 4 ng/well of pcDNA-EGFP using 0.15 μL of FuGENE6™ (Roche) (at room temperature).
To each well of the cells of the invention as prepared as described above under (4), 3 hours after transfection, DMSO was added to a final concentration of 0.125, 0.25, 1, 2, 4 or 10%.
After 24 hours following the addition of DMSO, the fluorescence intensity of EGFP expressed in each well was measured using Berthord's measuring apparatus ARVO. Immediately thereafter, the luciferase activity was measured using Steady-Glo™ (Promega) as a substrate and using Berthord's measuring apparatus ARVO.
(§6) In FIG. 4, the ordinate denotes the relative survival rate (%) (the relative measurement result value at each DMSO concentration with the measurement result in each test carried out without addition of DMSO being taken as 100), and the abscissa denotes the DMSO concentration (%).

Data set [4] relates to CHO-K1 cells. In words: MTT assay of CHO-K1 cells with pGL3-Control alone, in the presence of DMSO (comparison). Type of data set: cell-based, hamster. Particulars: 24 hours of culture with DMSO; relative to no DMSO = 100. How it is done:
For comparison, the following MTT assay and AlamarBlue assay were carried out using the respective assay kits. Thus, CHO-K1 cells with pGL3-Control alone introduced therein were used in lieu of the above-prepared cells, DMSO was added to each well to the same concentration as mentioned above and, after 24 hours of culture, the MTT assay was carried out. The MTT measurement was performed as indicated in the manual attached to the product.
as §6

For the compound `O=[N+]([O-])c1ccc(Oc2c(Cl)cc(Cl)cc2Cl)cc1` [CNP, chloronirophen], the “antagonistic activity against the androgen receptor (judgment)” value in data set [1] is given as “has an antagonistic activity against the androgen receptor”. The cytotoxic effect result in data set [2] is “any cytotoxic effect will not manifest itself”.

Regarding `C[S+](C)[O-]` [DMSO, dimethyl sulfoxide], the “DMSO concentration from which decreases in luciferase activity are observed” value in data set [3] is recorded as “about 0.25%”. Further, the “DMSO concentration at which a decrease in MTT activity is first observed” value in data set [4] was no less than 4%.

For the compound `CC(=O)O[C@]1(C(C)=O)CC[C@H]2[C@@H]3C=C(Cl)C4=CC(=O)[C@@H]5C[C@@H]5[C@]4(C)[C@H]3CC[C@@]21C` [cyproterone acetate, Cyproterone acetate], the cytotoxic effect entry in data set [2] is “no cytotoxic effect was observed”. The “EGFP activity (cell survival rate)” value in data set [2] (Chinese hamster, 24 h) is given as roughly 100%.

Consider `CC1(C)CNC(=NN=C(/C=C/c2ccc(C(F)(F)F)cc2)/C=C/c2ccc(C(F)(F)F)cc2)NC1` [hydramethylnone, Hydramethylnone], for which, in data set [1], the “antagonistic activity against the androgen receptor (judgment)” value is “no antagonistic activity”. The luciferase activity result in data set [1] (with 5×10^−9 M 5α-dehydrotestosterone, 24 hours after addition of test substance) is given as “decreases in luciferase activity were due to cytotoxicity”.
